Data from publication PMC7037682, “Herb–Drug Interaction of Red Ginseng Extract and Ginsenoside Rc with Valsartan in Rats” (Molecules, 2020).
Read-outs that look alike come from different tables or passages of the source. Values belong to the molecule of their own block, whether it stands above or below them.

What was measured:
[1] = biological target: T1, OAT1 (Homo sapiens, UniProt Q4U2R8); test: Inhibition of OAT1-mediated [3H]PAH uptake in HEK293-OAT1 cells
T1 sequence (Q4U2R8 1-563): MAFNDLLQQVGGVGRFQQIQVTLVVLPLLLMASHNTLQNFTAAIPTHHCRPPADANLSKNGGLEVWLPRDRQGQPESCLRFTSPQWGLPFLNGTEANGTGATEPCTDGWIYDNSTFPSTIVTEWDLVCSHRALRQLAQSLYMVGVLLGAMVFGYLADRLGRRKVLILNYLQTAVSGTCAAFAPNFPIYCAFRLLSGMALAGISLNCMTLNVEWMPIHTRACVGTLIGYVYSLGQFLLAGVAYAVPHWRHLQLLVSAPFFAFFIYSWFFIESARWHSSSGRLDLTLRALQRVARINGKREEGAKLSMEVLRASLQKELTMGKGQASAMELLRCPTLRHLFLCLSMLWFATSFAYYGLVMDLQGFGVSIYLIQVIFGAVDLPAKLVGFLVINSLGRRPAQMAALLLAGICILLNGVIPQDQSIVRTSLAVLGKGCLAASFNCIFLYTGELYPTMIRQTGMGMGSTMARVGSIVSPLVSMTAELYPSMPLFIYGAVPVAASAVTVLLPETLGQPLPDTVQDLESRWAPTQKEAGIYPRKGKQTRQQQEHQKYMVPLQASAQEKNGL
Protocol: HEK293 cells overexpressing the OCT1, OCT2, OAT1, OAT3, OATP1B1, and OATP1B3 transporters (HEK293-OCT1, -OCT2, -OAT1, -OAT3, -OATP1B1, and -OATP1B3, respectively) and HEK293-mock cells (Corning Life Sciences; Woburn, MA, USA) were used and characterized as previously described.
HEK293 cells overexpressing drug transporters and HEK293-mock cells were seeded in poly-D-lysine-coated 96-well plates at a density of 10^5 cells/well and were cultured in DMEM supplemented with 10% FBS, 5 mM non-essential amino acids, and 2 mM sodium butyrate in a humidified atmosphere with 8% CO2 at 37 °C.
Then the uptake of probe substrates into HEK293-mock cells and HEK293-OCT1, -OCT2, -OAT1, -OAT3, -OATP1B1, and -OATP1B3 cells in the presence and absence of typical inhibitor or each ginsenoside with previously described concentration range was measured for 5 min. Immediately after placing the plates on ice, the cells were washed three times with 100 μL of ice-cold HBSS, followed by lysing with 50 μL of 10% SDS solution and mixing with 150 μL of Optiphase cocktail solution (Perkin Elmer Inc., Boston, MA, USA). The radioactivity of the probe substrates in the cells was determined using a liquid scintillation counter.
In the inhibition studies, the uptake rate of substrate by HEK293 cells overexpressing the respective transporters was used as the control (100%) and the uptake rate of substrates in the presence of typical inhibitors or ginsenosides expressed as a percentage of the control. The inhibition data were fitted to an inhibitory effect model using Sigma plot (version 10.0; Systat Software Inc., San Jose, CA, USA). IC50 value indicated the half-maximal inhibitory concentration of the inhibitor.

[2] = Protein binding in rat plasma by rapid equilibrium dialysis; assay type: in vitro ADME; details: rapid equilibrium dialysis 4 h 37 °C
Protocol: (§1) The protein binding of Rb1, Rb2, and Rc (1 μM) in rat plasma and liver homogenate was determined using a rapid equilibrium dialysis kit (ThermoFisher Scientific Korea, Seoul, Korea) according to the manufacturer’s instructions. Briefly, 100 μL of rat plasma and 10% liver homogenate samples containing Rb1, Rb2, or Rc (1 μM) were added to the sample chamber of a semipermeable membrane (molecular weight cut-off 8000 Da) and 300 μL of HBSS was added to the outer buffer chamber. Four hours after incubation at 37 °C on a shaking incubator at 300 rpm, aliquots (50 μL) were collected from both the sample and buffer chambers and treated with equal volumes of fresh HBSS and plasma, respectively, to match the sample matrices. The matrix-matched samples (100 μL) were mixed with 300 μL of 80% ice-cold methanol containing berberine 0.05 ng/mL and 0.1% formic acid for 15 min.
Plasma protein binding was calculated using the following equation [47]. (1) Undiluted free drug fraction fu= Drug concentration in buffer chamber/Drug concentration in plasma chamber

[3] = Protein binding in rat liver homogenate by rapid equilibrium dialysis; assay type: in vitro ADME; details: 10% liver homogenate, rat liver homogenate (10%)
Protocol: as §1
Tissue protein binding was calculated using the following equations, and a dilution factor (D as a value of 10) was used since we used 10% liver homognenates. (2) Diluted free drug fraction fu^′= Drug concentration in buffer chamber/Drug concentration in liver homogenate chamber (3) Undiluted free drug fraction fu= 1/D/1/fu^′−1+1/D= 0.1/1/fu^′−1+0.1

[4] = repeated red ginseng extract 3 g/day ref 14, 41; cited from earlier work
[5] = biological target: T2, OATP1B1 (Homo sapiens, UniProt Q9Y6L6); test: Inhibition of OATP1B1-mediated valsartan uptake in HEK293-OATP1B1 cells; assay type: cell-based; set-up: host or cells: HEK293; details: 5 μM valsartan, 5 min
T2 sequence (Q9Y6L6 1-691): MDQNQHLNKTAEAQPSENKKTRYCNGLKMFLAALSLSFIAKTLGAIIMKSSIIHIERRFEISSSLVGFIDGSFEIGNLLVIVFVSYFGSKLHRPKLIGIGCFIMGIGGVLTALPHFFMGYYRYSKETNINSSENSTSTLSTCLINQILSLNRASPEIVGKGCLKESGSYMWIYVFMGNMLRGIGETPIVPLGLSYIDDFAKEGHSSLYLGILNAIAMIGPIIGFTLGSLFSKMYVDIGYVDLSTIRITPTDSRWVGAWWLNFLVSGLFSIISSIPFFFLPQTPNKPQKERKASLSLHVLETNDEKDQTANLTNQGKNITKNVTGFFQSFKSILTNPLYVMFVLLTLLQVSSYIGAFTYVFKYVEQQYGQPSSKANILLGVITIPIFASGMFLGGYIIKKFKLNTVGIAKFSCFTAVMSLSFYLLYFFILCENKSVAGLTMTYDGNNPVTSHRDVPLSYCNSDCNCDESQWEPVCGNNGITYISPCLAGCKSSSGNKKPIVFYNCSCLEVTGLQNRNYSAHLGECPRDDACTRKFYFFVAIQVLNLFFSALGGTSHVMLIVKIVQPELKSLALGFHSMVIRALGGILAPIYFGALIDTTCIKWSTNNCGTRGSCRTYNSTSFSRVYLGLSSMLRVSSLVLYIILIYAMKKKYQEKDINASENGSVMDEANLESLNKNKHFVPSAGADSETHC
Protocol: Transporter mediated uptake of probe substrates or valsartan was calculated by subtracting the uptake rate of probe substrates or valsartan into HEK293-mock cells from that into HEK293 cells expressing respective transporters.

[6] = tested on: UGT1A9; details: cited from earlier work; for IC50: read-out: IC50 UGT1A9
[7] = read-out: IC50 OAT1, HEK293-OAT1, 0.1 μM [3H]PAH uptake, 5 min

Structure (SMILES): CC(C)=CCC[C@](C)(O)[C@H]1CC[C@]2(C)[C@@H]1[C@H](O)C[C@@H]1[C@@]3(C)CC[C@H](O[C@@H]4O[C@H](CO)[C@@H](O)[C@H](O)[C@H]4O)C(C)(C)[C@@H]3CC[C@]12C [Rh2, ginsenoside Rh2]
IC50 [1]: > 100 µM

Structure (SMILES): CC(C)=CCC[C@](C)(O)[C@H]1CC[C@]2(C)[C@@H]1[C@H](O)C[C@@H]1[C@@]3(C)CC[C@H](O)C(C)(C)[C@@H]3[C@@H](O)C[C@]12C [PPT, protopanaxatriol]
IC50 [1, 7]: > 100 µM

Structure (SMILES): CC(C)=CCC[C@](C)(O)[C@H]1CC[C@]2(C)[C@@H]1[C@H](O)C[C@@H]1[C@@]3(C)CC[C@H](O[C@@H]4O[C@H](CO)[C@@H](O)[C@H](O)[C@H]4O[C@@H]4O[C@H](CO)[C@@H](O)[C@H](O)[C@H]4O)C(C)(C)[C@@H]3CC[C@]12C [Rg3, ginsenoside Rg3]
IC50 [1, 7]: > 100 µM
IC50 [6]: 15.1 µM

Structure (SMILES): CC(C)=CCC[C@](C)(O)[C@H]1CC[C@]2(C)[C@@H]1[C@H](O)C[C@@H]1[C@@]3(C)CC[C@H](O)C(C)(C)[C@@H]3[C@@H](O[C@@H]3O[C@H](CO)[C@@H](O)[C@H](O)[C@H]3O)C[C@]12C [Rh1, ginsenoside Rh1]
IC50 [1]: > 100 µM

Structure (SMILES): CC(C)=CCCC(C)(O)[C@H]1CC[C@]2(C)[C@@H]1[C@H](O)C[C@@H]1[C@@]3(C)CC[C@H](O)C(C)(C)[C@@H]3CC[C@]12C (stereo in doubt) [PPD, protopanaxadiol]
IC50 [1, 7]: > 100 µM

Structure (SMILES): CC(C)=CCC[C@](C)(O[C@@H]1O[C@H](CO)[C@@H](O)[C@H](O)[C@H]1O)[C@H]1CC[C@]2(C)[C@@H]1[C@H](O)C[C@@H]1[C@@]3(C)CC[C@H](O)C(C)(C)[C@@H]3[C@@H](O[C@@H]3O[C@H](CO)[C@@H](O)[C@H](O)[C@H]3O)C[C@]12C [Rg1, ginsenoside Rg1]
IC50 [1]: > 100 µM
IC50 UGT1A9 [6]: did not inhibit

More lines, main results first:

IC50 [1]: > 100 µM
fraction unbound at 4 h, 1 μM [2]: 0.001 ± 7.01e-08
fraction unbound at 4 h, 1 μM [3]: 0.005
IC50 [5]: 13.6 µM
Structure (SMILES): CC(C)=CCC[C@](C)(O[C@@H]1O[C@H](CO[C@@H]2O[C@@H](CO)[C@H](O)[C@H]2O)[C@@H](O)[C@H](O)[C@H]1O)[C@H]1CC[C@]2(C)[C@@H]1[C@H](O)C[C@@H]1[C@@]3(C)CC[C@H](O[C@@H]4O[C@H](CO)[C@@H](O)[C@H](O)[C@H]4O[C@@H]4O[C@H](CO)[C@@H](O)[C@H](O)[C@H]4O)C(C)(C)[C@@H]3CC[C@]12C [Rc, ginsenoside Rc]
maximum concentration in human blood [4]: 6.2 to 12.7 nM

IC50 [1]: > 100 µM
Structure (SMILES): CC(C)=CCC[C@](C)(O[C@@H]1O[C@H](CO)[C@@H](O)[C@H](O)[C@H]1O)[C@H]1CC[C@]2(C)[C@@H]1[C@H](O)C[C@@H]1[C@@]3(C)CC[C@H](O[C@@H]4O[C@H](CO)[C@@H](O)[C@H](O)[C@H]4O[C@@H]4O[C@H](CO)[C@@H](O)[C@H](O)[C@H]4O)C(C)(C)[C@@H]3CC[C@]12C [Rd, ginsenoside Rd]

IC50 [1]: > 100 µM
Structure (SMILES): CC(C)=CCC[C@](C)(O[C@@H]1O[C@H](CO)[C@@H](O)[C@H](O)[C@H]1O)[C@H]1CC[C@]2(C)[C@@H]1[C@H](O)C[C@@H]1[C@@]3(C)CC[C@H](O)C(C)(C)[C@@H]3[C@@H](O[C@@H]3O[C@H](CO)[C@@H](O)[C@H](O)[C@H]3O[C@@H]3O[C@@H](C)[C@H](O)[C@@H](O)[C@H]3O)C[C@]12C [Re, ginsenoside Re]
IC50 UGT1A9 [6]: did not inhibit

IC50 [1, 7]: > 100 µM
Structure (SMILES): CC(C)=CCC[C@](C)(O[C@@H]1O[C@H](CO)[C@@H](O)[C@H](O)[C@H]1O)[C@H]1CC[C@]2(C)[C@@H]1[C@H](O)C[C@@H]1[C@@]3(C)CC[C@H](O)C(C)(C)[C@@H]3CC[C@]12C [Compound K, compound K]

IC50 [1]: > 100 µM
fraction unbound at 4 h, 1 μM [2]: 0.001 ± 4e-08
fraction unbound at 4 h, 1 μM [3]: 0.004
IC50 [5]: 8.8 µM
Structure (SMILES): CC(C)=CCC[C@](C)(O[C@@H]1O[C@H](CO[C@@H]2OC[C@H](O)[C@H](O)[C@H]2O)[C@@H](O)[C@H](O)[C@H]1O)[C@H]1CC[C@]2(C)[C@@H]1[C@H](O)C[C@@H]1[C@@]3(C)CC[C@H](O[C@@H]4O[C@H](CO)[C@@H](O)[C@H](O)[C@H]4O[C@@H]4O[C@H](CO)[C@@H](O)[C@H](O)[C@H]4O)C(C)(C)[C@@H]3CC[C@]12C [Rb2, ginsenoside Rb2]
maximum concentration in human blood [4]: 6.2 to 12.7 nM

IC50 [1]: > 100 µM
fraction unbound at 4 h, 1 μM [2]: 0.002
fraction unbound at 4 h, 1 μM [3]: 0.004
IC50 [5]: 24.1 µM
Structure (SMILES): CC(C)=CCC[C@](C)(O[C@@H]1O[C@H](CO[C@@H]2O[C@H](CO)[C@@H](O)[C@H](O)[C@H]2O)[C@@H](O)[C@H](O)[C@H]1O)[C@H]1CC[C@]2(C)[C@@H]1[C@H](O)C[C@@H]1[C@@]3(C)CC[C@H](O[C@@H]4O[C@H](CO)[C@@H](O)[C@H](O)[C@H]4O[C@@H]4O[C@H](CO)[C@@H](O)[C@H](O)[C@H]4O)C(C)(C)[C@@H]3CC[C@]12C [Rb1, ginsenoside Rb1]
maximum concentration in human blood [4]: 6.2 to 12.7 nM
IC50 [6]: 21.3 µM
